{"source": "paper PMC7939474", "about": "(The Journal of Biological Chemistry, 2021)", "molecular_target": "T1, VcINDY WT (Vibrio cholerae, UniProt Q9KNE0)", "T1 construct": "gene VC_A0025", "test": "biochemical", "data": [{"smiles": "O=C(O)CCC(=O)O", "note": "[succinate]", "values": [{"measurement": "Kd", "value": "4.3 ± 1.5", "unit": "mM"}]}]}
